The record followed here is US20230248665A1, “COMPOSITION COMPRISING DIMETHYLCHALCONE DERIVATIVE FOR PREVENTION OR TREATMENT OF METABOLIC DISEASE” (SEOUL NATIONAL UNIVERSITY R & DB FOUNDATION, priority 2020, published 2023).

Format in all cases: cell-based
The test system of experiment [1] is AMPK. Nature of the experiment: AMPK activity, western blotting of phosphorylated AMPK in C2C12 myotubes. As to conditions: FIG. 2. An excerpt: AMP-activated protein kinase (AMPK) is a member of serine/threonine kinases, and is an enzyme known as an energy sensor which senses the intracellular energy state. Moreover, the activation of AMPK is known to show the effect of increasing glucose transport and promoting fatty acid oxidation in skeletal muscle, and to […] the synthesis of cholesterol and triglycerides, decrease lipogenesis, and increase fatty acid oxidation, and ketogenesis, and the like in the liver. Further, the activation of AMPK is known to reduce adipogenesis in adipose tissue and increase insulin secretion in pancreatic beta cells, thereby being able to be applied to the treatment of various metabolic diseases. Therefore, western blotting was performed in order to confirm the effect of the DMC derivatives of Example 1 on AMPK activity. More specifically, the C2C12 myoblasts were primarily cultured in DMEM supplemented with 10% fetal bovine serum, and then cultured in DMEM supplemented with 2% horse serum for 5 days to differentiate into myotubes. Then, the differentiated myotubes were treated with 10 µM DMC derivative and cultured for 24 hours, and then cells were collected, and disrupted using an ultrasonic disperser to obtain proteins. Next, western blotting was performed using a pAMPK antibody (Cell Signaling Technology) and an AMPK antibody (Cell Signaling Technology) to measure the amount of phosphorylated AMPK. 1 mM AICAR was used as a positive control, and 20 µg of protein was used for each sample in western blotting.
A general note: In western blotting, separated proteins are transferred to a membrane and probed.

Experiment [2] has as its system rat aortic smooth muscle cells. Kind of experiment: PDGF-induced migration of vascular smooth muscle cells. The following applies: 1 µM with 10 ng/mL PDGF; FIG. 4. As to the method: Proliferation and migration of vascular smooth muscle cells are known to be essential steps in the progression of vascular diseases such as restenosis and arteriosclerosis. Therefore, in order to confirm the effect of the DMC derivatives of Example 1 on the migration of rat aortic smooth muscle cells, smooth muscle cells were treated with 10 ng/mL platelet-derived growth factor (PDGF) and 1 µM DMC derivative and cultured. Then, the degree of cell migration was measured.

In experiment [3] the test system is human kidney proximal tubule epithelial cell (HK-2) cell line. Kind of experiment: Antioxidant effect, intracellular reactive oxygen species (DCF-DA) in HK-2 kidney cells after H2O2. The following applies: 1 µM for 18 hours, then 500 µM H2O2 for 6 hours, FIG. 6. As to the method:
First, the antioxidant effect was checked using kidney cells. More specifically, a human kidney proximal tubule epithelial cell (HK-2) cell line was treated with 1 µM DMC derivative and cultured for 18 hours. Then, 500 µM H2O2 was added to the culture medium and the culture medium was incubated for 6 hours. Thereafter, the amount of intracellular reactive oxygen species (iROS) was measured using dichlorohydro-fluorescein diacetate (DCF-DA).

Consider `COCOc1ccc(/C=C/C(=O)c2c(O)c(C)c(OCOC)c(C)c2OC)cc1` [Chemical Formula 28, 1-(2′-hydroxy-4′-(methoxymethoxy)-6′-methoxy-3′,5′-dimethylphenyl)-3-(4-methoxymethoxyphenyl)-2-propen-1-one], for which, in experiment [1] (10 µM, 24 hours), the “activity of AMPK (phosphorylated AMPK)” value is reported as “increased the activity of AMPK similarly to or more effectively than the positive controls”. In addition, in experiment [2], the “migration of vascular smooth muscle cells” value (from here on “migration”) is “similarly or more effectively suppressed cell migration by PDGF than AICAR and Rosi, which were used as positive controls, and DMC”.
On to `COc1c(C)c(OC)c(C(=O)/C=C/c2ccc(C)cc2)c(OC)c1C` [Chemical Formula 18, 1-(3′,5′-dimethyl-2′,4′,6′-trimethoxyphenyl)-3-(4-tolyl)-2-propen-1-one], for which the “migration” value in experiment [2] is “similarly or more effectively suppressed cell migration by PDGF than AICAR and Rosi, which were used as positive controls, and DMC”.
For `NC(=O)c1ncn([C@@H]2O[C@H](CO)[C@@H](O)[C@H]2O)c1N` [AICAR, reference compound], in experiment [1] (positive control 1 mM AICAR), the “activity of AMPK (phosphorylated AMPK)” value is listed as “increased the activity of AMPK”.
In the case of `COc1ccc(/C=C/C(=O)c2c(OC)c(C)c(OC)c(C)c2OC)cc1` [Chemical Formula 21, 1-(3′,5′-dimethyl-2′,4′,6′-trimethoxyphenyl)-3-(4-methoxyphenyl)-2-propen-1-one], in experiment [1] (10 µM, 24 hours), the “activity of AMPK (phosphorylated AMPK)” value is “increased the activity of AMPK similarly to or more effectively than the positive controls”. Further, the “migration” value in experiment [2] is “similarly or more effectively suppressed cell migration by PDGF than AICAR and Rosi, which were used as positive controls, and DMC”.
For `COc1c(C)c(O)c(C)c(O)c1C(=O)/C=C/c1ccccc1Cl` [Chemical Formula 37, 1-(2′,4′-dihydroxy-6′-methoxy-3′,5′-dimethylphenyl)-3-(2-chlorophenyl)-2-propen-1-one], the “activity of AMPK (phosphorylated AMPK)” value in experiment [1] (10 µM, 24 hours) is on record as “increased the activity of AMPK similarly to or more effectively than the positive controls”. Also, in experiment [2], the “migration” value is “similarly or more effectively suppressed cell migration by PDGF than AICAR and Rosi, which were used as positive controls, and DMC”.
Take `COCOc1c(C)c(O)c(C(=O)/C=C/c2ccccc2F)c(OC)c1C` [Chemical Formula 34, 1-(2′-hydroxy-4′-(methoxymethoxy)-6′-methoxy-3′,5′-dimethylphenyl)-3-(2-fluorophenyl)-2-propen-1-one]: the “migration” value in experiment [2] is “similarly or more effectively suppressed cell migration by PDGF than AICAR and Rosi, which were used as positive controls, and DMC”.
As to `COc1c(C)c(OC)c(C(=O)/C=C/c2ccc(O)cc2)c(OC)c1C` [Chemical Formula 22, 1-(3′,5′-dimethyl-2′,4′,6′-trimethoxyphenyl)-3-(4-hydroxyphenyl)-2-propen-1-one], the “activity of AMPK (phosphorylated AMPK)” value in experiment [1] (10 µM, 24 hours) is “increased the activity of AMPK similarly to or more effectively than the positive controls”. Moreover, the “migration” value in experiment [2] is “similarly or more effectively suppressed cell migration by PDGF than AICAR and Rosi, which were used as positive controls, and DMC”.
With `COc1ccc(/C=C/C(=O)c2c(O)c(C)c(O)c(C)c2OC)cc1` [Chemical Formula 5, 1-(2′,4′-dihydroxy-6′-methoxy-3′,5′-dimethylphenyl)-3-(4-methoxyphenyl)-2-propen-1-one], in experiment [1] (10 µM, 24 hours), the “activity of AMPK (phosphorylated AMPK)” value was “increased the activity of AMPK similarly to or more effectively than the positive controls”.
As to `COCOc1ccc(/C=C/C(=O)c2c(OC)c(C)c(OC)c(C)c2OC)cc1` [Chemical Formula 20, 1-(3′,5′-dimethyl-2′,4′,6′-trimethoxyphenyl)-3-(4-methoxymethoxyphenyl)-2-propen-1-one], the “activity of AMPK (phosphorylated AMPK)” value in experiment [1] (10 µM, 24 hours) is given as “increased the activity of AMPK similarly to or more effectively than the positive controls”. For the same compound, in experiment [2], the “migration” value was “similarly or more effectively suppressed cell migration by PDGF than AICAR and Rosi, which were used as positive controls, and DMC”. Moreover, the “amount of intracellular reactive oxygen species (ROS)” value (shortened to “amount”) in experiment [3] was “effectively reduced ROS”.
Turning to `COc1c(C)c(OC)c(C(=O)/C=C/c2ccc(F)cc2)c(OC)c1C` [Chemical Formula 16, 1-(3′,5′-dimethyl-2′,4′,6′-trimethoxyphenyl)-3-(4-fluorophenyl)-2-propen-1-one], the “migration” value in experiment [2] is “similarly or more effectively suppressed cell migration by PDGF than AICAR and Rosi, which were used as positive controls, and DMC”. For the same compound, the “amount” value in experiment [3] is recorded as “effectively reduced ROS”.
`COc1c(C)c(OC)c(C(=O)/C=C/c2ccc(C(C)C)cc2)c(OC)c1C` [Chemical Formula 19, 1-(3′,5′-dimethyl-2′,4′,6′-trimethoxyphenyl)-3-(4-isopropylphenyl)-2-propen-1-one]: the “activity of AMPK (phosphorylated AMPK)” value in experiment [1] (10 µM, 24 hours) is “increased the activity of AMPK similarly to or more effectively than the positive controls”. Moreover, the “migration” value in experiment [2] is “similarly or more effectively suppressed cell migration by PDGF than AICAR and Rosi, which were used as positive controls, and DMC”.
For the compound `COc1c(C)c(O)c(C)c(O)c1C(=O)/C=C/c1cccc(F)c1` [Chemical Formula 32, 1-(2′,4′-dihydroxy-6′-methoxy-3′,5′-dimethylphenyl)-3-(3-fluorophenyl)-2-propen-1-one], the “activity of AMPK (phosphorylated AMPK)” value in experiment [1] (10 µM, 24 hours) is given as “increased the activity of AMPK similarly to or more effectively than the positive controls”.
Take `COc1c(C)c(O)c(C)c(O)c1C(=O)/C=C/c1ccc(C(C)C)cc1` [Chemical Formula 4, 1-(2′,4′-dihydroxy-6′-methoxy-3′,5′-dimethylphenyl)-3-(4-isopropylphenyl)-2-propen-1-one]: in experiment [2], the “migration” value is “similarly or more effectively suppressed cell migration by PDGF than AICAR and Rosi, which were used as positive controls, and DMC”. The “amount” value in experiment [3] is reported as “effectively reduced ROS”.
For the compound `COCOc1c(C)c(O)c(C(=O)/C=C/c2ccc(C(C)C)cc2)c(OC)c1C` [Chemical Formula 27, 1-(2′-hydroxy-4′-(methoxymethoxy)-6′-methoxy-3′,5′-dimethylphenyl)-3-(4-isopropylphenyl)-2-propen-1-one], the “activity of AMPK (phosphorylated AMPK)” value in experiment [1] (10 µM, 24 hours) is on record as “increased the activity of AMPK similarly to or more effectively than the positive controls”. In addition, the “migration” value in experiment [2] is “similarly or more effectively suppressed cell migration by PDGF than AICAR and Rosi, which were used as positive controls, and DMC”.
As to `COc1c(C)c(O)c(C)c(O)c1C(=O)/C=C/c1ccccc1` [DMC, 2′,4′-dihydroxy-6′-methoxy-3′,5′-dimethylchalcone, reference compound], the “activity of AMPK (phosphorylated AMPK)” value in experiment [1] (10 µM, 24 hours) is given as “increased the activity of AMPK”.
With `COCOc1c(C)c(O)c(C(=O)/C=C/c2ccc(OC)cc2)c(OC)c1C` [Chemical Formula 29, 1-(2′-hydroxy-4′-(methoxymethoxy)-6′-methoxy-3′,5′-dimethylphenyl)-3-(4-methoxyphenyl)-2-propen-1-one], in experiment [1] (10 µM, 24 hours), the “activity of AMPK (phosphorylated AMPK)” value is “increased the activity of AMPK similarly to or more effectively than the positive controls”. The “migration” value in experiment [2] is “similarly or more effectively suppressed cell migration by PDGF than AICAR and Rosi, which were used as positive controls, and DMC”.
Turning to `COc1c(C)c(OC)c(C(=O)/C=C/c2ccccc2)c(OC)c1C` [Chemical Formula 17, 1-(3′,5′-dimethyl-2′,4′,6′-trimethoxyphenyl)-3-phenyl-2-propen-1-one], the “migration” value in experiment [2] is “similarly or more effectively suppressed cell migration by PDGF than AICAR and Rosi, which were used as positive controls, and DMC”. Besides, the “amount” value in experiment [3] was “effectively reduced ROS”.
For the compound `COCOc1c(C)c(O)c(C(=O)/C=C/c2ccc(C)cc2)c(OC)c1C` [Chemical Formula 26, 1-(2′-hydroxy-4′-(methoxymethoxy)-6′-methoxy-3′,5′-dimethylphenyl)-3-(4-tolyl)-2-propen-1-one], the “activity of AMPK (phosphorylated AMPK)” value in experiment [1] (10 µM, 24 hours) is reported as “increased the activity of AMPK similarly to or more effectively than the positive controls”. For the same compound, in experiment [2], the “migration” value was “similarly or more effectively suppressed cell migration by PDGF than AICAR and Rosi, which were used as positive controls, and DMC”.
